Source: PMC7402526, “An in vitro quantitative systems pharmacology approach for deconvolving mechanisms of drug-induced, multilineage cytopenias” (PLoS Computational Biology, 2020)

How the values were obtained:
[1] = test system: hematopoietic stem cells (HSCs); assay: Multi-lineage toxicity assay (MLTA), HSCs: concentration-response and QSP model fit; format: cell-based, human; design: EmaxAP,HSC / EmaxT,HSC / Emax_drug_HSC: unitless, 0–2; ≤1 anti-proliferative, >1 adds cell killing
How it was run: (§1)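 Freeze-thawed primary human bone marrow CD34+ cells were grown in SFEM II with a multi-lineage cytokine cocktail, drug added day 0, six days at 37°C. Lineage counts came from 17-parameter flow with TruCount beads, vehicle-normalized per donor, then fitted by an Emax-based QSP model.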

granulocytes (Gran-lin) = assay: MLTA, Gran: concentration-response and QSP model fit; format: cell-based, human; conditions: Homo sapiens, 144 h
How it was run: as §1

[2] = test system: monocyte progenitors (monocyte prog); assay: MLTA, MonoP: concentration-response and QSP model fit; format: cell-based, human; conditions: Homo sapiens, Monocyte, 144 h
How it was run: as §1

monocytes (monocyte-lin) = assay: MLTA, Mono: concentration-response and QSP model fit; format: cell-based, human; conditions: Homo sapiens, Monocyte, 144 h
How it was run: as §1

[3] = test system: neutrophils (neutrophil-lin); assay: MLTA, Neut: concentration-response and QSP model fit; format: cell-based, human; conditions: Homo sapiens, Neutrophil, 144 h
How it was run: as §1

[4] = test system: late erythroid cells (Eryth II); assay: MLTA, ErythII: concentration-response and QSP model fit; format: cell-based, human; conditions: Homo sapiens, 144 h
How it was run: as §1

[5] = test system: total dead cells (totalDeadCells); assay: MLTA, total dead cells concentration-response; format: cell-based; conditions: Homo sapiens, 144 h, 6 days, normalized to vehicle control, read-out: total_dead normalized cell count
Method: (§2) A custom optimized cytokine cocktail was developed using commercially available cytokines (Peprotech, New Jersey) to facilitate simultaneous multi-lineage differentiation and self-renewal of freeze-thawed primary human bone marrow-derived CD34+ cells in SFEM II media (cells and media from StemCell Technologies, Vancouver). Cultures were carried out in ultra-low attachment 96-well plates (Corning, New York) with test article added on day 0 and cultured at 37°C, 85% relative humidity, and 5% CO2 for six days before interrogating drug impact via 17-parameter flow cytometry.
(§3) The flow cytometry panel used to define hematopoietic subsets was composed of CD34-PECy7, CD90-PECY5, CD38-AF488, CD371-PE, CD45Ra-BV421, CD14-BV605, CD42b-AF647, CD10-PEDazzle594, CD235a-PerCPCy5.5 (BioLegend, California), CD15-BUV395, CD41a-APCH7, CD71-BV786 (BD Biosciences, California), and DAPI for dead cell exclusion (ThermoFisher, California). In short, Day 6 cells were harvested, FcR-blocked (FcR binding inhibitor, ThermoFisher), surface-stained, then analyzed in a buffer containing TruCount Control Beads using a BD LSR Fortessa SORP fitted with a high-throughput sampler (BD Biosciences, California). Data was analyzed in Diva 6.0.2 and exported to CSV where after all cell data was transformed to cell per mL then normalized on a per-donor basis to untreated control wells to determine drug impact.
(§4) Donor material was collected and cultured as described above. The number of replicate donor samples per drug ranged from 2–7 and varied per drug (S1 Table). Drug treatment was added at time 0 and cells were maintained in culture for 6 days. Concentrations tested for each drug compound are contained in S1 Table. Concentrations were selected to span a range that is clinically useful. Following treatment, cell populations were measured using flow cytometry. We extracted cell counts from flow cytometry data, normalized to bead counts, and corrected for well volume.
(§5) Each well was normalized to the average of six vehicle control wells. For drugs that were tested across multiple runs of the assay, vehicle-normalized donor data were pooled, and we used the average of these pooled data for further modeling. Normalized data used as model inputs are included in S1 Table.

[6] = test system: human bone marrow-derived CD34+ cells differentiated into multiple hematopoietic lineages; assay: MLTA, overall effects across hematopoietic lineages; format: cell-based; conditions: QSP model fit; EmaxT > 1.0 = cell-killing
Method: as §2, §3, §4, §5
We implemented drug effects using an Emax model for the drug’s effect on each cell type. The 13 maximum effect parameters (EmaxT,C) are unitless and can vary between 0 and 2 and where a subscript, C, represents one of the previously described 13 cell types. We adapted a traditional Emax model using the equations below. We interpreted EmaxT values less than or equal to one as anti-proliferative, and EmaxT values greater than one as indicating a cell-killing mechanism in addition to anti-proliferation. The relationships for these effects are included in the model using the following equations. Eq 2 describes the drug anti-proliferative effect in the net proliferation rate for a given cell type. Eq 3 describes the cell-killing EmaxCK effect.

CCc1cnn2c(NCc3ccc[n+]([O-])c3)cc(N3CCCC[C@H]3CCO)nc12 [dinaciclib]
activity at 0.0002 µM ([1]; Homo sapiens, Hematopoietic stem cell, 144 h, dose 0.2 nM, 6 days, normalized to vehicle control, read-out: HSCs normalized cell count): 89.5% | activity at 0.001 µM ([1]; Homo sapiens, Hematopoietic stem cell, 144 h, dose 1 nM, 6 days, normalized to vehicle control, read-out: HSCs normalized cell count): 106% | activity at 0.005 µM ([1]; Homo sapiens, Hematopoietic stem cell, 144 h, dose 5 nM, 6 days, normalized to vehicle control, read-out: HSCs normalized cell count): 115% | activity at 0.025 µM ([1]; Homo sapiens, Hematopoietic stem cell, 144 h, dose 25 nM, 6 days, normalized to vehicle control, read-out: HSCs normalized cell count): 61.2% | activity at 0.1 µM ([1]; Homo sapiens, Hematopoietic stem cell, 144 h, dose 100 nM, 6 days, normalized to vehicle control, read-out: HSCs normalized cell count): 1.89% | activity at 0.5 µM ([1]; Homo sapiens, Hematopoietic stem cell, 144 h, dose 500 nM, 6 days, normalized to vehicle control, read-out: HSCs normalized cell count): 5.17% | activity at 2.5 µM ([1]; Homo sapiens, Hematopoietic stem cell, 144 h, dose 2500 nM, 6 days, normalized to vehicle control, read-out: HSCs normalized cell count): 1.3% | Emax ([1]; Homo sapiens, Hematopoietic stem cell, 144 h, parameter from QSP model fitting, read-out: Emax_drug_HSC): 103% | EmaxAP,HSC ([1]; anti-proliferation component, min(1, EmaxT)): 1.000 | activity at 0.0002 µM (granulocytes (Gran-lin); dose 0.2 nM, 6 days, normalized to vehicle control, read-out: Gran normalized cell count): 96.8% | activity at 0.001 µM (granulocytes (Gran-lin); dose 1 nM, 6 days, normalized to vehicle control, read-out: Gran normalized cell count): 120% | activity at 0.005 µM (granulocytes (Gran-lin); dose 5 nM, 6 days, normalized to vehicle control, read-out: Gran normalized cell count): 121% | activity at 0.025 µM (granulocytes (Gran-lin); dose 25 nM, 6 days, normalized to vehicle control, read-out: Gran normalized cell count): 32.8% | activity at 0.1 µM (granulocytes (Gran-lin); dose 100 nM, 6 days, normalized to vehicle control, read-out: Gran normalized cell count): 0.0467% | activity at 0.5 µM (granulocytes (Gran-lin); dose 500 nM, 6 days, normalized to vehicle control, read-out: Gran normalized cell count): 0.0554% | activity at 2.5 µM (granulocytes (Gran-lin); dose 2500 nM, 6 days, normalized to vehicle control, read-out: Gran normalized cell count): 0.0385% | Emax (granulocytes (Gran-lin); parameter from QSP model fitting, read-out: Emax_drug_Gran): 201% | activity at 0.0002 µM ([2]; dose 0.2 nM, 6 days, normalized to vehicle control, read-out: MonoPs normalized cell count): 96.5% | activity at 0.001 µM ([2]; dose 1 nM, 6 days, normalized to vehicle control, read-out: MonoPs normalized cell count): 106% | activity at 0.005 µM ([2]; dose 5 nM, 6 days, normalized to vehicle control, read-out: MonoPs normalized cell count): 125% | activity at 0.025 µM ([2]; dose 25 nM, 6 days, normalized to vehicle control, read-out: MonoPs normalized cell count): 61.8% | activity at 0.1 µM ([2]; dose 100 nM, 6 days, normalized to vehicle control, read-out: MonoPs normalized cell count): 0.141% | activity at 0.5 µM ([2]; dose 500 nM, 6 days, normalized to vehicle control, read-out: MonoPs normalized cell count): 0.19% | activity at 2.5 µM ([2]; dose 2500 nM, 6 days, normalized to vehicle control, read-out: MonoPs normalized cell count): 0.231% | Emax ([2]; parameter from QSP model fitting, read-out: Emax_drug_MonoP): 0.04% | activity at 0.0002 µM (monocytes (monocyte-lin); dose 0.2 nM, 6 days, normalized to vehicle control, read-out: Mon normalized cell count): 90.7% | activity at 0.001 µM (monocytes (monocyte-lin); dose 1 nM, 6 days, normalized to vehicle control, read-out: Mon normalized cell count): 106% | activity at 0.005 µM (monocytes (monocyte-lin); dose 5 nM, 6 days, normalized to vehicle control, read-out: Mon normalized cell count): 69.5% | activity at 0.025 µM (monocytes (monocyte-lin); dose 25 nM, 6 days, normalized to vehicle control, read-out: Mon normalized cell count): 8.55% | activity at 0.1 µM (monocytes (monocyte-lin); dose 100 nM, 6 days, normalized to vehicle control, read-out: Mon normalized cell count): 0.496% | activity at 0.5 µM (monocytes (monocyte-lin); dose 500 nM, 6 days, normalized to vehicle control, read-out: Mon normalized cell count): 0.834% | activity at 2.5 µM (monocytes (monocyte-lin); dose 2500 nM, 6 days, normalized to vehicle control, read-out: Mon normalized cell count): 0.535% | Emax (monocytes (monocyte-lin); parameter from QSP model fitting, read-out: Emax_drug_Mono): 48.2% | activity at 0.0002 µM ([3]; dose 0.2 nM, 6 days, normalized to vehicle control, read-out: Neut normalized cell count): 83.8% | activity at 0.001 µM ([3]; dose 1 nM, 6 days, normalized to vehicle control, read-out: Neut normalized cell count): 83.1% | activity at 0.005 µM ([3]; dose 5 nM, 6 days, normalized to vehicle control, read-out: Neut normalized cell count): 24.9% | activity at 0.025 µM ([3]; dose 25 nM, 6 days, normalized to vehicle control, read-out: Neut normalized cell count): 0.684% | activity at 0.1 µM ([3]; dose 100 nM, 6 days, normalized to vehicle control, read-out: Neut normalized cell count): 0.0259% | activity at 0.5 µM ([3]; dose 500 nM, 6 days, normalized to vehicle control, read-out: Neut normalized cell count): 0.0166% | activity at 2.5 µM ([3]; dose 2500 nM, 6 days, normalized to vehicle control, read-out: Neut normalized cell count): 0.0149% | Emax ([3]; parameter from QSP model fitting, read-out: Emax_drug_Neut): 28.1% | activity at 0.0002 µM ([4]; dose 0.2 nM, 6 days, normalized to vehicle control, read-out: ErythII normalized cell count): 90% | activity at 0.001 µM ([4]; dose 1 nM, 6 days, normalized to vehicle control, read-out: ErythII normalized cell count): 108% | activity at 0.005 µM ([4]; dose 5 nM, 6 days, normalized to vehicle control, read-out: ErythII normalized cell count): 98.7% | activity at 0.025 µM ([4]; dose 25 nM, 6 days, normalized to vehicle control, read-out: ErythII normalized cell count): 23.2% | activity at 0.1 µM ([4]; dose 100 nM, 6 days, normalized to vehicle control, read-out: ErythII normalized cell count): 0.0437% | activity at 0.5 µM ([4]; dose 500 nM, 6 days, normalized to vehicle control, read-out: ErythII normalized cell count): 0.0109% | activity at 2.5 µM ([4]; dose 2500 nM, 6 days, normalized to vehicle control, read-out: ErythII normalized cell count): 0.0201% | Emax ([4]; parameter from QSP model fitting, read-out: Emax_drug_ErythroidII): 7.1% | activity at 0.0002 µM ([5]; dose 0.2 nM): 108% | activity at 0.001 µM ([5]; dose 1 nM): 106% | activity at 0.005 µM ([5]; dose 5 nM): 78.9% | activity at 0.025 µM ([5]; dose 25 nM): 34.8% | activity at 0.1 µM ([5]; dose 100 nM): 38.7% | activity at 0.5 µM ([5]; dose 500 nM): 34.1% | activity at 2.5 µM ([5]; dose 2500 nM): 39.6% | EmaxT effects across cell types (overall statement) [6]: > 1.0
